Data taken from patent US20220281825A1 (priority 2016, published 2022).

Columns and labels:
[1] = in vivo; conditions: guinea pig, po, 10 mg/kg
[2] = guinea pig, in vivo, 10 mg/kg
[3] = target: hERG channel (Homo sapiens, UniProt Q12809); conditions: pH 7.4
[4] = 1 h, pH 7.4
[5] = test system: GTOV-p; test: organism not typed; type: cell-based, Guanarito (GTOV); conditions: Vero, 24 h, read-out: GTOV-p EC50 (nM)
[6] = guinea pig, 1 h, pH 7.4
[7] = test system: MACV-p; test: organism not typed; type: cell-based, Machupo (MACV); conditions: Vero, 24 h, read-out: MACV-p EC50 (nM)
[8] = test system: LASV-p; test: organism not typed; type: cell-based, Lassa (LASV); conditions: Vero, 24 h, read-out: LASV-p EC50 (nM)
[9] = test system: TCRV-p; test: organism not typed; type: cell-based; conditions: Vero, 24 h, read-out: TCRV-p EC50 (nM)
[10] = 1 h, pH 7.4; remark: listed apart in the source
[11] = 1 h, pH 7.4; remark: listed apart in the source
[12] = 1 h, pH 7.4; remark: listed apart in the source
[13] = test system: JUNV-p; test: organism not typed; type: cell-based, Junin (JUNV); conditions: Vero, 24 h, read-out: JUNV-p EC50 (nM)
[14] = in vitro; conditions: African green monkey
[15] = 1 h, pH 7.4; remark: listed apart in the source
[16] = test system: LASV; test: organism not typed; type: cell-based, Lassa (LASV); conditions: for EC50: 120 h, read-out: LASV EC50 uM
[17] = test system: JUNV; test: organism not typed; type: cell-based, Junin (JUNV); conditions: for EC50: 120 h, read-out: JUNV EC50 uM
[18] = test system: VSV-p; test: microbe, parasite or virus in culture; type: cell-based; conditions: Vesicular stomatitis virus, Vero, 24 h, read-out: VSV-p EC50 (nM)
[19] = test system: native replicating Tacaribe (TCRV) virus; test: microbe, parasite or virus in culture; type: cell-based; conditions: for EC50: Mammarenavirus tacaribeense, Vero, 120 h, read-out: TCRV EC50 uM
[20] = test system: LCMV; test: microbe, parasite or virus in culture; type: cell-based, lymphocytic choriomeningitis virus (LCMV); conditions: for EC90: Mammarenavirus choriomeningitidis, read-out: LCMV EC90 uM

hERG channel, sequence (Q12809 whole entry): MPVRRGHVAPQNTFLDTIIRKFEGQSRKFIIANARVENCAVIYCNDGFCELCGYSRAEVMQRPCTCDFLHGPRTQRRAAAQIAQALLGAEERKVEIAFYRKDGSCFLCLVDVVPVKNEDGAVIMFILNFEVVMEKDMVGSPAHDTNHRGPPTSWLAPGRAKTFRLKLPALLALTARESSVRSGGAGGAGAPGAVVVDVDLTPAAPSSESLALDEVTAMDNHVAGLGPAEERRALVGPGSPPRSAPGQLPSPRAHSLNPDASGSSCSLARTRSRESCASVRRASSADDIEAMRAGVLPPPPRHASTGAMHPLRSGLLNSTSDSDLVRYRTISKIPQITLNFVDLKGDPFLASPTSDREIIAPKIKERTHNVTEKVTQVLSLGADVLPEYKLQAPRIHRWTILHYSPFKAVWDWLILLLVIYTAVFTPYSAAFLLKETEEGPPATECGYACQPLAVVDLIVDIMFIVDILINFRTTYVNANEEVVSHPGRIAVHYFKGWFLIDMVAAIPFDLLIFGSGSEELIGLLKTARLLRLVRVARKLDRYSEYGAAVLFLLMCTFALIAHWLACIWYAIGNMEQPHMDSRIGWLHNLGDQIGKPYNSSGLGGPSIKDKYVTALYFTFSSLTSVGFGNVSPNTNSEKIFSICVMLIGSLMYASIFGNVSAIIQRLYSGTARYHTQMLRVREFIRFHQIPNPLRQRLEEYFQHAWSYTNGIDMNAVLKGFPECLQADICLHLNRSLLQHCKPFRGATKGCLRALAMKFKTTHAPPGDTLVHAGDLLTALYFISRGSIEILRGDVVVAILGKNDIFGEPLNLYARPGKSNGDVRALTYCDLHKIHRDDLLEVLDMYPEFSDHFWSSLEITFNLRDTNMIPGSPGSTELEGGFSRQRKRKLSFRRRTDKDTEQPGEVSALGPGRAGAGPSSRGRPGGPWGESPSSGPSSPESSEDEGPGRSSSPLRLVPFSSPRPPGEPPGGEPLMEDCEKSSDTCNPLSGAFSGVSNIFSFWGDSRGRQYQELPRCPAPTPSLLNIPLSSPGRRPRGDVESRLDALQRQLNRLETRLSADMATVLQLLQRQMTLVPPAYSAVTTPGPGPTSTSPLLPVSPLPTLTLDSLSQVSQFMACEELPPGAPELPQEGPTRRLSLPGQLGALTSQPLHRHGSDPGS

SMILES | hERG % Inhibition [3] | EC50 [5] | Percent parent compound remaining at 60 minutes in liver microsomes, Guinea [6] | EC50 [7] | EC50 [8] | EC50 [9] | Percent parent compound remaining at 60 minutes in liver microsomes, Mouse [10] | Percent parent compound remaining at 60 minutes in liver microsomes, Human [11] | Percent parent compound remaining at 60 minutes in liver microsomes, Monkey [12] | EC50 [13] | CC50 [14] | Percent parent compound remaining at 60 minutes in liver microsomes, Rat [15] | LASV SI [16] | EC50 [16] | JUNV SI [17] | EC50 [17] | EC50 [18] | TCRV SI50 [19] | EC50 [19] | LCMV SI90 [20] | other results
CC(C)Oc1ccc(-c2ccc3ncc(-c4ccc(OC(C)C)cc4)n3c2)cc1 [Example C2, 3,6-bis[4-(propan-2-yloxy)phenyl]imidazo[1,2-a]pyridine] | 89% | – | – | – | – | – | – | – | – | – | – | – | – | – | – | – | – | – | – | – | Cmax [1]: 156 ng/mL; Tmax [1]: 1 h; oral exposure [2]: demonstrated oral exposure
Cc1c(-c2ccc(OC(C)C)cc2)ccc2ncc(-c3ccc(OC(C)C)cc3)n12 [Example C51, 5-methyl-3,6-bis[4-(propan-2-yloxy)phenyl]imidazo[1,2-a]pyridine] | 49% | 0.21 nM | 95% | 0.13 nM | 0.31 nM | 0.37 nM | 92% | 100% | 21% | 0.15 nM | 4190 nM | 75% | – | – | – | – | – | – | – | – | Percent parent compound remaining at 60 minutes in liver microsomes, Dog [4]: 82%
CC(C)Oc1ccc(-n2cnc3ccc(-c4ccc(C(C)(C)O)cc4)cc32)cc1 [Example A17, 2-(4-{1-[4-(propan-2-yloxy)phenyl]-1H-1,3-benzodiazol-6-yl}phenyl)propan-2-ol] | – | 0.52 nM | 62% | 0.2 nM | 1.1 nM | 0.6 nM | 44% | 69% | 7% | 0.2 nM | 5810 nM | 86% | 249 | 0.06 µM | 82 | 0.115 µM | > 1000 nM | 609 | 0.023 µM | 12 | Cmax [1]: 639 ng/mL; Tmax [1]: 1 h; half-life [1]: 4 to 6 h; oral exposure [2]: demonstrated oral exposure; T ½ ([2]; po): 4 to 6 h; EC90 [20]: 0.71 µM
CC(C)Oc1ccc(-c2cnc3ccc(-c4ccc(C(C)(C)O)cc4)cn23)cc1 [Example C1, 2-(4-{3-[4-(propan-2-yloxy)phenyl]imidazo[1,2-a]pyridin-6-yl}phenyl)propan-2-ol] | 55% | 0.08 nM | 42% | 0.7 nM | 0.59 nM | 1.45 nM | 22% | 76% | 16% | 0.82 nM | 7520 nM | 77% | 921 | 0.025 µM | 352 | 0.055 µM | > 1000 nM | 2500 | 0.003 µM | 37 | EC90 [20]: 0.82 µM
CC(C)Oc1ccc(-n2cnc3ccc(-c4ccc5[nH]ccc5c4)cc32)cc1 [Example A24, 6-(1H-indol-5-yl)-1-[4-(propan-2-yloxy)phenyl]-1H-1,3-benzodiazole] | – | 0.3 nM | 0% | 3.7 nM | 0.91 nM | 15.9 nM | – | 63% | – | 1.7 nM | 71300 nM | 32% | 527 | 0.06 µM | 53 | 0.56 µM | – | 7100 | 0.01 µM | 18 | EC90 [20]: 0.56 µM
COc1cc2ncn(-c3ccc(OC(C)C)cc3)c2cc1-c1ccc(OC(C)C)cc1 [Example A31, 5-methoxy-1,6-bis[4-(propan-2-yloxy)phenyl]-1H-1,3-benzodiazole] | <10% | – | 100% | 0.9 nM | 2.6 nM | 0.7 nM | – | 93% | 40% | 0.18 nM | 3790 nM | – | – | – | – | – | – | – | – | – | –
Cc1cc2nnn(-c3ccc(OC(C)C)cc3)c2cc1-c1ccc(OC(C)C)cc1 [Example B15, 5-methyl-1,6-bis[4-(propan-2-yloxy)phenyl]-1H-1,2,3-benzotriazole] | <10% | 0.18 nM | – | 0.25 nM | 0.95 nM | 0.37 nM | – | – | – | 0.02 nM | > 100000 nM | – | – | – | – | – | > 10000 nM | – | – | – | –
